Values belong to the molecule of their own block, whether it stands above or below them.
How the values were obtained:
[1] = target: T1, Serine/threonine-protein kinase ULK2 (Homo sapiens) (UniProt Q8IYT8); assay: Selectivity interaction (KinomeScan (DiscoverX)) EUB0000178b ULK2; conditions: at 1 µM
T1 sequence (whole entry): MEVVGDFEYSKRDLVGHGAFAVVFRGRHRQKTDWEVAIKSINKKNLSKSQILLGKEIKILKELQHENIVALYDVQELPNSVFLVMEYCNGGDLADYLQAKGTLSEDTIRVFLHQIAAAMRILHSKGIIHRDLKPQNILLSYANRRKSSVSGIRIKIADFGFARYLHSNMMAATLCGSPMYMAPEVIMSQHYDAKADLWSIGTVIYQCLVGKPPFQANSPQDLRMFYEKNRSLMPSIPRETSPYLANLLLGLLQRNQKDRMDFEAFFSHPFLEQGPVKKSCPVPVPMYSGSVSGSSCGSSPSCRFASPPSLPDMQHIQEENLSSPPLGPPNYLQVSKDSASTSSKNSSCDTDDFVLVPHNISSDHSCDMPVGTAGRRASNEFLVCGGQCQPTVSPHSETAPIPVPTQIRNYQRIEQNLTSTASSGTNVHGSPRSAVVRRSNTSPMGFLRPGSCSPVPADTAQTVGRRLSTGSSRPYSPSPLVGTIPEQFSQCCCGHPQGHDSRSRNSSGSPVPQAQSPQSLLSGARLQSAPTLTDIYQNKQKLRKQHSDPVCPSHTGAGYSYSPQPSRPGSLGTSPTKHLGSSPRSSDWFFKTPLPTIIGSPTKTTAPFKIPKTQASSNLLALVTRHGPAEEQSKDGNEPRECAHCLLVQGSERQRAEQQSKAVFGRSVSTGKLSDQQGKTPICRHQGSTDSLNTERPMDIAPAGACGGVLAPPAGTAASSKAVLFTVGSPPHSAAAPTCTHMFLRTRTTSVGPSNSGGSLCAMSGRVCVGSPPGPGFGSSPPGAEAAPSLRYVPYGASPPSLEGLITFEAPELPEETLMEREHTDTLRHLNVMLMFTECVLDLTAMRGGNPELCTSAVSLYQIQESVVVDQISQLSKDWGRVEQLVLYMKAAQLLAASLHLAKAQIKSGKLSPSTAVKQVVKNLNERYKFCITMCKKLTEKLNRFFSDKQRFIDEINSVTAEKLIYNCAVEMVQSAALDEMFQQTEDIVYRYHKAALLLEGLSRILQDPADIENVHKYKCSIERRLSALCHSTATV

[2] = target: Cyclin-dependent kinase 2 (Homo sapiens, UniProt P24941); assay: Selectivity interaction (Kinase panel (University of Dundee)) EUB0000169b CDK2; conditions: at 10 µM
[3] = target: Phosphorylase b kinase regulatory subunit alpha, liver isoform (Homo sapiens) (UniProt P46019); assay: Selectivity interaction (Kinase panel (University of Dundee)) EUB0000169b PHKA2; conditions: at 10 µM
Sequence of Phosphorylase b kinase regulatory subunit alpha, liver isoform (Homo sapiens) (P46019 whole entry, canonical isoform): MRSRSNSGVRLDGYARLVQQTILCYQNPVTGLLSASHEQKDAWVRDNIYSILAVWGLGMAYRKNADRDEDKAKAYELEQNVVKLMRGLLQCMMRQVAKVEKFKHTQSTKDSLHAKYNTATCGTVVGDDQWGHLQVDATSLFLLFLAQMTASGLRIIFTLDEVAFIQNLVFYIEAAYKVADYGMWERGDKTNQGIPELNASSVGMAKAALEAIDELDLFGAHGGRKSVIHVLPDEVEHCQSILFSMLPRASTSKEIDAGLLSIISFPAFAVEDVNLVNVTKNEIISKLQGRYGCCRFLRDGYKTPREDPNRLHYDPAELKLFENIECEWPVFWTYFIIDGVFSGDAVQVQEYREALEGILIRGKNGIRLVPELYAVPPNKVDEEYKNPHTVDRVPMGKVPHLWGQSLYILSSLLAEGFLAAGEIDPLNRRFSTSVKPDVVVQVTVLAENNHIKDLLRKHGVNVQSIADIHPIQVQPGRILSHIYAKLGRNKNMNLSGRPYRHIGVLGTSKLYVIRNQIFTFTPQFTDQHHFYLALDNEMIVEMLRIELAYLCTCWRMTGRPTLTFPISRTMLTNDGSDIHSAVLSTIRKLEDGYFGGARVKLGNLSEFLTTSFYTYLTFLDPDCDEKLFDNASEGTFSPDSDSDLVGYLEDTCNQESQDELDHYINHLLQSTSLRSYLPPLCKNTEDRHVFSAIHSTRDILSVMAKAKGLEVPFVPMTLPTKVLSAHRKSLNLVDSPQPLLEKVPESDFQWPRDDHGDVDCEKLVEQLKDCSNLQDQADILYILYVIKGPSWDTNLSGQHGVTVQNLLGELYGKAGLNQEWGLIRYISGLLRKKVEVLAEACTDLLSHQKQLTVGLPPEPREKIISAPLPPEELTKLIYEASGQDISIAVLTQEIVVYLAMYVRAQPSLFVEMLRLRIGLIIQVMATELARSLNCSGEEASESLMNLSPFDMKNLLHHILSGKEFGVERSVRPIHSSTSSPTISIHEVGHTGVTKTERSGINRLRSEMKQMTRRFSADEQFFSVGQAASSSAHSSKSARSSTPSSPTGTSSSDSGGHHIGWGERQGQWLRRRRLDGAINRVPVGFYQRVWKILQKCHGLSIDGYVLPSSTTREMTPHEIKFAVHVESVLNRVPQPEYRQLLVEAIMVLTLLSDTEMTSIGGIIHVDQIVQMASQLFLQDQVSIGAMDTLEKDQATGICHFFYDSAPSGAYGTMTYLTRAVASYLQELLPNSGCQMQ

[4] = target: T2, Ephrin type-B receptor 6 (Homo sapiens) (UniProt O15197); assay: Selectivity interaction (KinomeScan (DiscoverX)) EUB0000698a EPHB6; conditions: at 10 µM
T2 sequence (whole entry): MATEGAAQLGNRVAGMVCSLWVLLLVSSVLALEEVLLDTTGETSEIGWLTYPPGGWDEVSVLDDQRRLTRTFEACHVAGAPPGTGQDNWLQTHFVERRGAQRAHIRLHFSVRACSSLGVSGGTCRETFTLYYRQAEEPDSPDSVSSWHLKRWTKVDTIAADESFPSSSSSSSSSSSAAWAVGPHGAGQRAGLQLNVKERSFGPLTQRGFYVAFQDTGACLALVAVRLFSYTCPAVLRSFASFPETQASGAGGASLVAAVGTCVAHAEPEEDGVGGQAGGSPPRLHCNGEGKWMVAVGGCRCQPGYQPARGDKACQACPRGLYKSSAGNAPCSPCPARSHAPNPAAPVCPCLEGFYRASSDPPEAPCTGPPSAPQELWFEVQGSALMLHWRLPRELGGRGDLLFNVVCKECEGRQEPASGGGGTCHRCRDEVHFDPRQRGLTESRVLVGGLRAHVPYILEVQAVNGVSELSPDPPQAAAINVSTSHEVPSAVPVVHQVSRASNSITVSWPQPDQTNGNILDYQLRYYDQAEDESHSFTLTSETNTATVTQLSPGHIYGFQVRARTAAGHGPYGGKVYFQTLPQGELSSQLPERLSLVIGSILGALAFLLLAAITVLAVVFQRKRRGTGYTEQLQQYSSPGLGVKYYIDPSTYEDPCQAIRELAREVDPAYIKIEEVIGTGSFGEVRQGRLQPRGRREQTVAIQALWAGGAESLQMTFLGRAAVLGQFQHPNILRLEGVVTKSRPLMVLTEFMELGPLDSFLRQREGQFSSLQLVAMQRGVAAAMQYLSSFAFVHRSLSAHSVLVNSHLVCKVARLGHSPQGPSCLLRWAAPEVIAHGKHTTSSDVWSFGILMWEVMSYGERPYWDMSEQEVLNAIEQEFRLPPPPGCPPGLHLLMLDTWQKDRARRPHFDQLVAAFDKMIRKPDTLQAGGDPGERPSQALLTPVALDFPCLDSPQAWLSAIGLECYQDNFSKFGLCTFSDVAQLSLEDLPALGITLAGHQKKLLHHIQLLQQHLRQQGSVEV

[5] = system: Mast/stem cell growth factor receptor Kit (Homo sapiens), P10721 [D816V]; assay: Selectivity interaction (KinomeScan (DiscoverX)) EUB0000698a KIT; conditions: at 10 µM
Sequence of Mast/stem cell growth factor receptor Kit (Homo sapiens), P10721 [D816V] (P10721 whole entry D816V): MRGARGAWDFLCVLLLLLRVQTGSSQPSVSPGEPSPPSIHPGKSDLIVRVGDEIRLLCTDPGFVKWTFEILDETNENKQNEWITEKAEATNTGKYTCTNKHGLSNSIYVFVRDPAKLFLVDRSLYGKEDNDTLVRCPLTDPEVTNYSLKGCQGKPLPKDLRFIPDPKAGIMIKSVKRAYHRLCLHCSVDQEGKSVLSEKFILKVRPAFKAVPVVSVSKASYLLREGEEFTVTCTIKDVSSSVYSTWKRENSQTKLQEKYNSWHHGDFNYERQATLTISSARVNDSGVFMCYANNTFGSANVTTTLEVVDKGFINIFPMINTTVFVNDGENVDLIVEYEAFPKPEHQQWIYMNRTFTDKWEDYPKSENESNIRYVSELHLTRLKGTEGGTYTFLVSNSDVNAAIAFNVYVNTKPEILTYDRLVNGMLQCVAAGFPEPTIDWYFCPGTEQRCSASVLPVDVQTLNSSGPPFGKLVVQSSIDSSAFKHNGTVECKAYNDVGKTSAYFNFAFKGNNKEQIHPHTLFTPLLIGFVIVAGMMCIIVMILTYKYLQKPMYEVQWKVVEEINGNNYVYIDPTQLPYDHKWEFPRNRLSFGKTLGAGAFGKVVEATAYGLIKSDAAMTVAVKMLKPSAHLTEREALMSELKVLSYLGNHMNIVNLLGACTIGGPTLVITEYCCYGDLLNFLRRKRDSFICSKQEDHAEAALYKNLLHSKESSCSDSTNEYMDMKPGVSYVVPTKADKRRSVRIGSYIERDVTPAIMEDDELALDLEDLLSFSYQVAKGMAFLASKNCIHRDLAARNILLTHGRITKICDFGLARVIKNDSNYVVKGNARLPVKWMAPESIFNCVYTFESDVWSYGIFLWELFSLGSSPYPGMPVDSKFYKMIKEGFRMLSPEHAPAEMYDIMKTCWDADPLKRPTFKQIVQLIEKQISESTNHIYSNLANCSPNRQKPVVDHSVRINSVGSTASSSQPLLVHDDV

[6] = target: T3, Mitogen-activated protein kinase 15 (Homo sapiens) (UniProt Q8TD08); assay: Selectivity interaction (KinomeScan (DiscoverX)) EUB0000702a MAPK15; conditions: at 1 µM
T3 sequence (whole entry): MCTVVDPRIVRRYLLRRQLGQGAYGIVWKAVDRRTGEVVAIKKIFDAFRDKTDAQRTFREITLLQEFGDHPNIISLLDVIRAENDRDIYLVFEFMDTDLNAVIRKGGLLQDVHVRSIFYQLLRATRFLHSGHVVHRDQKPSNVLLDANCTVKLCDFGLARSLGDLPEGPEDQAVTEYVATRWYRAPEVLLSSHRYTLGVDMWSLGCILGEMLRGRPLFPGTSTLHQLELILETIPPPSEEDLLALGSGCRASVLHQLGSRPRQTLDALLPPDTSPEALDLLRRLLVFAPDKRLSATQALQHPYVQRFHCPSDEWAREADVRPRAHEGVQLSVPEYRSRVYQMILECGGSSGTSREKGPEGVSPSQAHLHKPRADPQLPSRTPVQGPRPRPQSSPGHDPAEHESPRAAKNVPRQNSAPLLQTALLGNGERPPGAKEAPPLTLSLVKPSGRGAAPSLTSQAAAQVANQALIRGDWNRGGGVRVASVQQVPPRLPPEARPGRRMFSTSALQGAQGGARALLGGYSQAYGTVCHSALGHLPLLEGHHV

[7] = target: Proto-oncogene tyrosine-protein kinase ROS (Homo sapiens) (UniProt P08922); conditions: at 1 µM
Sequence of Proto-oncogene tyrosine-protein kinase ROS (Homo sapiens) (P08922 whole entry): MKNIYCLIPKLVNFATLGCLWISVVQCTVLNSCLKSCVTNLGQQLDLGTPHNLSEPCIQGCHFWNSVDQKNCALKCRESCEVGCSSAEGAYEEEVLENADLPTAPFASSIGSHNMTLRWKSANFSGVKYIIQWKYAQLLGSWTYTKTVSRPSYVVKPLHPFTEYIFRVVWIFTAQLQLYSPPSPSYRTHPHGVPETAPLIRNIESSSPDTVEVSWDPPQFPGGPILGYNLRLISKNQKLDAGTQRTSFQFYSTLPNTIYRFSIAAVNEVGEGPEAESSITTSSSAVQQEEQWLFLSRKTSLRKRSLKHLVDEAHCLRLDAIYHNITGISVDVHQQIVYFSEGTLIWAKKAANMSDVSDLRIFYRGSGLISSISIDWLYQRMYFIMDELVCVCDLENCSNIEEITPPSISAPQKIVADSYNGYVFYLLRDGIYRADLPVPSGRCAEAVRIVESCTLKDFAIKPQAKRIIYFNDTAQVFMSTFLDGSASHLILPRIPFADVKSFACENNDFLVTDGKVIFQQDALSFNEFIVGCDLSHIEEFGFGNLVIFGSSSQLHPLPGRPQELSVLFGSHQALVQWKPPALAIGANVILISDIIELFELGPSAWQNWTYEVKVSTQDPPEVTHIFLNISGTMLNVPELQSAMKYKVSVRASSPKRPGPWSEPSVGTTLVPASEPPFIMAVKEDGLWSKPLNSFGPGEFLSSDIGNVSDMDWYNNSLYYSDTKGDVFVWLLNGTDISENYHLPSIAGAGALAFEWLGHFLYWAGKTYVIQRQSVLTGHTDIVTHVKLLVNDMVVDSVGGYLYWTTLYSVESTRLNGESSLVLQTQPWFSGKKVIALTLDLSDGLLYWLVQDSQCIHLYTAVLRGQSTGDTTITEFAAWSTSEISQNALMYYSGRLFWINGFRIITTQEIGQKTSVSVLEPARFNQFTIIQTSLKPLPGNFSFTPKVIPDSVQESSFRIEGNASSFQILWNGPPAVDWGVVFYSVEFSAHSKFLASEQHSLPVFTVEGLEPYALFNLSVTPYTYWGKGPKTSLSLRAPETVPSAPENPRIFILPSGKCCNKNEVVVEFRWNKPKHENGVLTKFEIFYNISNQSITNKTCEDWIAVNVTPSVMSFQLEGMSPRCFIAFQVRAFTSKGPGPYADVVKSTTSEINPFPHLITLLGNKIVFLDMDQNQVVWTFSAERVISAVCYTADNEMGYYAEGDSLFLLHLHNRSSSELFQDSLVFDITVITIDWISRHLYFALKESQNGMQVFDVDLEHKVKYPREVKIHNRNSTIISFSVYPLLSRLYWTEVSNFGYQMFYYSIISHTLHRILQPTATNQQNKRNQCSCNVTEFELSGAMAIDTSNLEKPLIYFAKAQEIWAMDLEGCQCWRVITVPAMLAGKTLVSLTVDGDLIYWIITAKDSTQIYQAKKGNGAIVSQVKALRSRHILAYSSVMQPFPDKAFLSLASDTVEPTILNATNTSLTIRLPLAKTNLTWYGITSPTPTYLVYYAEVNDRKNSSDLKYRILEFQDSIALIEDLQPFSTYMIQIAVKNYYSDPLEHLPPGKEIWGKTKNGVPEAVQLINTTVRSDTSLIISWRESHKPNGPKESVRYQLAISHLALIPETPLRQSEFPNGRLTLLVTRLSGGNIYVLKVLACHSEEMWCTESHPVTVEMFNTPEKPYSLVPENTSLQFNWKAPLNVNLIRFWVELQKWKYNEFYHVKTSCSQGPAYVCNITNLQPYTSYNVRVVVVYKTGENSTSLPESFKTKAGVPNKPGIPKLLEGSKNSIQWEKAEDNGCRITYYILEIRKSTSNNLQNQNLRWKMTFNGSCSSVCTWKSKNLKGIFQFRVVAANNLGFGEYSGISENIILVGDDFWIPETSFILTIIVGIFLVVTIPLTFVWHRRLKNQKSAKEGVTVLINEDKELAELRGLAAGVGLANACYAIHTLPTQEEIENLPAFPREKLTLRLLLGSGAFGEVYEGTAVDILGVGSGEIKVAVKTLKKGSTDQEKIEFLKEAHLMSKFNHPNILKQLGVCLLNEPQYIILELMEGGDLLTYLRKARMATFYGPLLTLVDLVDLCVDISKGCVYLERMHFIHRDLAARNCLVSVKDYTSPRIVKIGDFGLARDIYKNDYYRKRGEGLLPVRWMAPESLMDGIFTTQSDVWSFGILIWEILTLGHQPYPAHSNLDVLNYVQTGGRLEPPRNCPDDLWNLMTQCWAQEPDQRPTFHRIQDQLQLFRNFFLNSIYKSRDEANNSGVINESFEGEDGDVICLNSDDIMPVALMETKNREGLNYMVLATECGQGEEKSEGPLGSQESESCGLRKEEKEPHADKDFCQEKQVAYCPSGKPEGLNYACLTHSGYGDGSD

[8] = target: Tyrosine-protein kinase HCK (Homo sapiens, UniProt P08631); conditions: at 1 µM
[9] = target: Tyrosine-protein kinase FRK (Homo sapiens, UniProt P42685); conditions: at 1 µM
Sequence of Tyrosine-protein kinase FRK (P42685 whole entry): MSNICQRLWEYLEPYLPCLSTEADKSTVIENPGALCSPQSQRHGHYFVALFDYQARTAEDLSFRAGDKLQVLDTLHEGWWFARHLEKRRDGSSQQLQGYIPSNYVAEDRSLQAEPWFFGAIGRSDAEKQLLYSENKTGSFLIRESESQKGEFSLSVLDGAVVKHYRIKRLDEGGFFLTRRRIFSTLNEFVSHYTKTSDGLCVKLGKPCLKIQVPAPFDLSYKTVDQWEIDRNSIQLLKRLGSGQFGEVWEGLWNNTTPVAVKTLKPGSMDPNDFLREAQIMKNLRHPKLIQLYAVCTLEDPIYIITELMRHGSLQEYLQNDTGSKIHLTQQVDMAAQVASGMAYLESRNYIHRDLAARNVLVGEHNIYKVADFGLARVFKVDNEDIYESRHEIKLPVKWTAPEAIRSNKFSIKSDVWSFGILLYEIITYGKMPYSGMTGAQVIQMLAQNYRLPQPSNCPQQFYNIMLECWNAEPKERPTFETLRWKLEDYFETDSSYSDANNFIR

% of control [1]: 4.8%
Compound: CN1C(=O)c2sccc2N(C)c2nc(Nc3ccc(S(N)(=O)=O)cc3)ncc21

% of control [2]: 20% | % of control [3]: 60%
Compound: CC[C@@H]1C(=O)N(C)c2cnc(Nc3ccc(C(=O)NC4CCN(C)CC4)cc3OC)nc2N1C1CCCC1

% of control [4]: 9.9% | % of control [5]: 1.4%
Compound: COc1cc2ncn(-c3cc(OCc4ccccc4C(F)(F)F)c(C(N)=O)s3)c2cc1OC [GW843682X]

Compound: CN(c1ccnc(CNc2nc(Nc3ccc4c(c3)CC(=O)N4)ncc2C(F)(F)F)n1)S(C)(=O)=O [PF-00911705]
% of control [6]: 4.8%

Compound: CCOc1cn(-c2ccc(F)cc2C)nc1C(=O)Nc1ccc(Oc2ccnc3cc(OC)c(OC)cc23)c(F)c1
% of control [7]: < 10% | % of control [8]: < 10% | % of control [9]: < 10%

Reference: ChEMBL document CHEMBL5212743, “Selectivity Literature for EUbOPEN Chemogenomics Library wave 3” (2023)
